# Assay results taken from ChEMBL document CHEMBL1201862, “PubChem BioAssay data set” (2004).
# The source made the active and inactive calls.
# Tested on: not listed separately
# Experiment: Luminescence Cell-Based Dose Response HTS to Identify Activators of Luciferase Translation or Activity in H4 […] Cells. [Related pubchem assays: 1829 (Project Summary), 1814 (Primary HTS)]
# Assay type: functional
# Settings: not given
row,SMILES,EC50
1,CN(C(=O)c1ccc(OC2CCN(CCc3ccccc3)CC2)cc1)C1CCCCC1,18.5 µM (active)
2,Cc1ccc(-c2nc(N3CCOCC3)s[n+]2-c2ccccc2)cc1.[O-][Cl+3]([O-])([O-])[O-],7.52 µM (active)
3,Cn1c(CCNC(=O)c2cccs2)nnc1SCC(=O)Nc1nc(-c2ccccc2)cs1,24.5 µM (active)
4,COc1ccc2[nH]cc(C(=O)CN3CCC(C)CC3)c2c1,17.6 µM (active)
5,C/N=C(\c1ccc(C)cc1)n1c(=S)nc(-c2ccc(C)cc2)n(C)c1=S,15.4 µM (active)
6,O=C(Nc1c(C(=O)Nc2ccc3c(c2)OCCO3)cnn1-c1ccccc1Cl)c1ccco1,20.5 µM (active)
7,Cc1ccc2nc(NC(=O)COC(=O)c3ccncc3)sc2c1,> 120 µM (not active)

# Biological target: T1, Zinc finger protein mex-5 (Caenorhabditis elegans, UniProt Q9XUB2)
# T1 sequence (Q9XUB2 whole entry): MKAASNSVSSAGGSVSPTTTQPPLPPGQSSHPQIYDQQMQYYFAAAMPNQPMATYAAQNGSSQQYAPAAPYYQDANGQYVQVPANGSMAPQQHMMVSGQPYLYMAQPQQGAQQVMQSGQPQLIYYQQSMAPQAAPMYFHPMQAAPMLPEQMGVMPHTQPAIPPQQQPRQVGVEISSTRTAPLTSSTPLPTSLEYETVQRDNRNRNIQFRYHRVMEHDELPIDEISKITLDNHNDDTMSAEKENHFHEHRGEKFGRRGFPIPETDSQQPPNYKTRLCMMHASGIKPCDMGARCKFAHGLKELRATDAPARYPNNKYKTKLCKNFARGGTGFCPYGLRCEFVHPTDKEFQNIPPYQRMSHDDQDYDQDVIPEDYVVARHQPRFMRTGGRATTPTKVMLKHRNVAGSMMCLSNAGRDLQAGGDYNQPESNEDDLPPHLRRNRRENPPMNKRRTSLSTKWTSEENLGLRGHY
# Experiment: potency of MEX-5 RNA-binding blockers – biochemical, C. elegans, fluorescence polarization, dose response (AID 1960)
# Settings: not given
row,SMILES,EC50
1,CC(/C=C1\N=C(SCc2ccccc2Cl)SC1=O)=C\c1ccccc1,> 300 µM (not active)

# Biological target: Cytochrome P450 2C19 (Homo sapiens, UniProt P33261)
# Experiment: Cytochrome panel assay with activity outcomes. Panel member name: p450-cyp2c19 Compounds with AC50 equal or less than 10 uM are considered active
# Assay type: functional
# Settings: read-out: AC50
# Chain of Cytochrome P450 2C19 (P33261 whole entry): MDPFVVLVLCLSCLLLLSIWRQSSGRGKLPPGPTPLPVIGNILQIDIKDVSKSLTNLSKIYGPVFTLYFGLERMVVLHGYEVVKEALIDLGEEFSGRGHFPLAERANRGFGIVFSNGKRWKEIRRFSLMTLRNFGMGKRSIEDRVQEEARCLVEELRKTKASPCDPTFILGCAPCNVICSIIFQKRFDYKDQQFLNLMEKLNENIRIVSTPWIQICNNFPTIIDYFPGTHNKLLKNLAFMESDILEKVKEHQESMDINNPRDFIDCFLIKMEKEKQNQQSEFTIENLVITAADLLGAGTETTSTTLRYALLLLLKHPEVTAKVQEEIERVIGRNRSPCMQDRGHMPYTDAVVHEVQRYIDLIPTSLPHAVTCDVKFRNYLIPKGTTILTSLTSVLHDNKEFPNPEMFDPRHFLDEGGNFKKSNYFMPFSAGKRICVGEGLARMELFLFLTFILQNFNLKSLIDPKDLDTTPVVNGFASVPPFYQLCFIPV
row,SMILES,AC50
1,CC(/C=C1\N=C(SCc2ccccc2Cl)SC1=O)=C\c1ccccc1,7.08 µM (inconclusive)

# Biological target: T2, Cytochrome P450 1A2 (Homo sapiens, UniProt P05177);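 further: PubChem cytochrome P450 panel assay, CYP1A2 panel member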
# T2 sequence (P05177 whole entry): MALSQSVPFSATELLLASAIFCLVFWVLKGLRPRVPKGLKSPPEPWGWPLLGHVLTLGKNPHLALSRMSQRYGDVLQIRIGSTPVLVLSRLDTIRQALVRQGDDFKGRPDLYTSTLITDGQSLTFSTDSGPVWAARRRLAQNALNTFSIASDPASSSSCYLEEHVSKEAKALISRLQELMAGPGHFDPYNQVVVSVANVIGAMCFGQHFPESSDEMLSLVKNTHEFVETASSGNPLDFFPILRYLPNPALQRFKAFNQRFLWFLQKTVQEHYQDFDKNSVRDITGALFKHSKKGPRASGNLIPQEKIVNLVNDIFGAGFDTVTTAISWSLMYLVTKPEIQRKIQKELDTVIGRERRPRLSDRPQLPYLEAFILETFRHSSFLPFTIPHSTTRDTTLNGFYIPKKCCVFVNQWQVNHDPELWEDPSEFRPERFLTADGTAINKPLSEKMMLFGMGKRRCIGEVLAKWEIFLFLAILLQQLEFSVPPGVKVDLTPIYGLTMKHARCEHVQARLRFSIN
# Settings: not given
row,SMILES,AC50
1,CC(/C=C1\N=C(SCc2ccccc2Cl)SC1=O)=C\c1ccccc1,4.47 µM (inconclusive)

# Tested on: H4
# Experiment: Luminescence Cell-Based Dose Response HTS to Identify Activators of 5'UTR Stem-Loop Driven Prion Protein mRNA Translation in H4 Neuroglioblastoma Cells. [Related pubchem assays: 1829 (Project Summary), 1814 (Primary HTS)]
# Assay type: functional
# Settings: Homo sapiens
row,SMILES,EC50
1,CN(C(=O)c1ccc(OC2CCN(CCc3ccccc3)CC2)cc1)C1CCCCC1,> 120 µM (not active)
2,Cc1ccc(-c2nc(N3CCOCC3)s[n+]2-c2ccccc2)cc1.[O-][Cl+3]([O-])([O-])[O-],31.5 µM (active)
3,Cn1c(CCNC(=O)c2cccs2)nnc1SCC(=O)Nc1nc(-c2ccccc2)cs1,27.3 µM (active)
4,COc1ccc2[nH]cc(C(=O)CN3CCC(C)CC3)c2c1,14.4 µM (active)
5,C/N=C(\c1ccc(C)cc1)n1c(=S)nc(-c2ccc(C)cc2)n(C)c1=S,21.3 µM (active)
6,O=C(Nc1c(C(=O)Nc2ccc3c(c2)OCCO3)cnn1-c1ccccc1Cl)c1ccco1,> 120 µM (not active)
7,Cc1ccc2nc(NC(=O)COC(=O)c3ccncc3)sc2c1,11.4 µM (active)

# Biological target: T3, Replicative DNA helicase DnaB (Mycobacterium tuberculosis, UniProt P9WMR3)
# T3 sequence (P9WMR3 whole entry): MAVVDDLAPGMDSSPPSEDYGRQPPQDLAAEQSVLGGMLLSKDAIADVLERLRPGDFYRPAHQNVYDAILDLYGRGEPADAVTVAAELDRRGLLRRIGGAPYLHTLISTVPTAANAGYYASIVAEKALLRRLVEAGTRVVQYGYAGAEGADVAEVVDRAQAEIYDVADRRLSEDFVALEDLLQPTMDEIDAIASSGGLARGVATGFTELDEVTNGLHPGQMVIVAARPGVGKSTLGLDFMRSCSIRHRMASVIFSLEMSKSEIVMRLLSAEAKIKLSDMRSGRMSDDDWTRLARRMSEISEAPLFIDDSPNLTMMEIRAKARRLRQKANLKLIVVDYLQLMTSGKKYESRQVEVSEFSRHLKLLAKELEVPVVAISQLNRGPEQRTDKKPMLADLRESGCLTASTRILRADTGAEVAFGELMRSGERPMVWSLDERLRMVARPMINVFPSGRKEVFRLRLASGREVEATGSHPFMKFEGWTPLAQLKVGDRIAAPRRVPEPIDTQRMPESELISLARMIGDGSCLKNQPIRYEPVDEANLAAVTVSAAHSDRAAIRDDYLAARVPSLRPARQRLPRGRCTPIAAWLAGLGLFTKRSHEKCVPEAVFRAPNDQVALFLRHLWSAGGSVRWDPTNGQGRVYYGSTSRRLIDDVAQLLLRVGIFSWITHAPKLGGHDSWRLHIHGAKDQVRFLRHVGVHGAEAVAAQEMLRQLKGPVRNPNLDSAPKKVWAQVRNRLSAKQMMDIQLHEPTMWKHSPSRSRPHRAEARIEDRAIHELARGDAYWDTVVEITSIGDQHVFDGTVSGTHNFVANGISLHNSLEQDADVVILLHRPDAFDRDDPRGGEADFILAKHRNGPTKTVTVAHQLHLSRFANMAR
# Experiment: DnaB intein splicing inhibitors, dose response, biochemical, cell-free fluorescence (AID 449749)
# Assay type: functional
# Settings: not given
row,SMILES,AC50
1,COC(=O)c1c(NC(=O)/C=C/C(=O)O)sc(C)c1-c1ccc(C)c(C)c1,15.1 µM (active)

# Biological target: T4, RNA-binding protein pos-1 (Caenorhabditis elegans, UniProt G5EF15)
# T4 sequence (G5EF15 whole entry): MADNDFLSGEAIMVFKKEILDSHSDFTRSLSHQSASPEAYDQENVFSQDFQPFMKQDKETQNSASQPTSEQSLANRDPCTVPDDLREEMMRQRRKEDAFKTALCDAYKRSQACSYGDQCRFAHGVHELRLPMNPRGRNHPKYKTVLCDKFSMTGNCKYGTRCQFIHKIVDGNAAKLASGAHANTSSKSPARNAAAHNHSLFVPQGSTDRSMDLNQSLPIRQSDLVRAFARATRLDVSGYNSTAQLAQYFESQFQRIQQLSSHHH
# Experiment: disruptors of C. elegans POS-1 RNA interaction – biochemical, fluorescence polarization, dose response (AID 1964);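 further: purified POS-1 fused to maltose binding protein made in E. coli; potency of compounds blocking POS-1 binding to fluorescent RNA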
# Settings: not given
row,SMILES,EC50
1,CC(/C=C1\N=C(SCc2ccccc2Cl)SC1=O)=C\c1ccccc1,> 300 µM (not active)

# Tested on: not listed separately
# Experiment: Luminescence Cell-Based Dose Confirmation HTS to Identify Activators of 5'UTR Stem-Loop Driven Alpha-Synuclein mRNA Translation in H4 Neuroglioblastoma Cells. [Related pubchem assays: 1829 (Project Summary), 1814 (Primary HTS)]
# Assay type: functional
# Settings: not given
row,SMILES,EC50
1,CN(C(=O)c1ccc(OC2CCN(CCc3ccccc3)CC2)cc1)C1CCCCC1,13.3 µM (active)
2,Cc1ccc(-c2nc(N3CCOCC3)s[n+]2-c2ccccc2)cc1.[O-][Cl+3]([O-])([O-])[O-],7.82 µM (active)
3,Cn1c(CCNC(=O)c2cccs2)nnc1SCC(=O)Nc1nc(-c2ccccc2)cs1,> 120 µM (not active)
4,COc1ccc2[nH]cc(C(=O)CN3CCC(C)CC3)c2c1,5.71 µM (active)
5,C/N=C(\c1ccc(C)cc1)n1c(=S)nc(-c2ccc(C)cc2)n(C)c1=S,> 120 µM (not active)
6,O=C(Nc1c(C(=O)Nc2ccc3c(c2)OCCO3)cnn1-c1ccccc1Cl)c1ccco1,20 µM (active)
7,Cc1ccc2nc(NC(=O)COC(=O)c3ccncc3)sc2c1,> 120 µM (not active)

# Biological target: T5, Leucine aminopeptidase (Plasmodium falciparum 3D7, UniProt Q8IL11)
# T5 sequence (Q8IL11 whole entry): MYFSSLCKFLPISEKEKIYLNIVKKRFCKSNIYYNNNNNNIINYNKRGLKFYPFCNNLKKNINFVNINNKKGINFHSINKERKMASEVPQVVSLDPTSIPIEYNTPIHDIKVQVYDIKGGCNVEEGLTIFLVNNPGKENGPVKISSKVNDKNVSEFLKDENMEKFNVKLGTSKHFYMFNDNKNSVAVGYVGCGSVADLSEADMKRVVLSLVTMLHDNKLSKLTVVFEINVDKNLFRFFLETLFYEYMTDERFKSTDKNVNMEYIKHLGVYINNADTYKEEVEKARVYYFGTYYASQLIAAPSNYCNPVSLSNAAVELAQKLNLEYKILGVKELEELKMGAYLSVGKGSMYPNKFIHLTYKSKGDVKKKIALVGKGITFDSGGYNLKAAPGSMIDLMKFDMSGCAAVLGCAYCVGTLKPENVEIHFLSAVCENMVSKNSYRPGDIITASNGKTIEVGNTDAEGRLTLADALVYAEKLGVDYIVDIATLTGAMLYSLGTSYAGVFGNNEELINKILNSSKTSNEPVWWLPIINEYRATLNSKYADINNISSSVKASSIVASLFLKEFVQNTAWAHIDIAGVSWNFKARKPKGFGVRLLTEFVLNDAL
# Experiment: P. falciparum M17LAP inhibitors, primary screen, biochemical, fluorogenic H-Leu-NHMec substrate, 1536-well (AID 1619)
# Assay type: functional
# Settings: not given
row,SMILES,IC50
1,O=C(O)CCc1nnc(SCC(=O)Nc2ccc(Cl)c(C(F)(F)F)c2)nc1O,2.82 µM (active)
2,O=C(Nc1ccccc1)NC(Cc1ccc(O)cc1)C(=O)O (configuration not stated),34.7 µM (active)
3,COC(=O)c1c(NC(=O)/C=C/C(=O)O)sc(C)c1-c1ccc(C)c(C)c1,35.6 µM (active)
4,COc1ccc2cc(/C=C3\SC(=S)NC3=O)c(N3CCOCC3)nc2c1,1.76 µM (active)
5,N#Cc1c(/N=C/C2C(=O)NC(=S)NC2=O)sc2c1CCCC2,110 µM (active)

# Biological target: T6, Protein RecA (Mycobacterium tuberculosis, UniProt P9WHJ3)
# T6 sequence (P9WHJ3 whole entry): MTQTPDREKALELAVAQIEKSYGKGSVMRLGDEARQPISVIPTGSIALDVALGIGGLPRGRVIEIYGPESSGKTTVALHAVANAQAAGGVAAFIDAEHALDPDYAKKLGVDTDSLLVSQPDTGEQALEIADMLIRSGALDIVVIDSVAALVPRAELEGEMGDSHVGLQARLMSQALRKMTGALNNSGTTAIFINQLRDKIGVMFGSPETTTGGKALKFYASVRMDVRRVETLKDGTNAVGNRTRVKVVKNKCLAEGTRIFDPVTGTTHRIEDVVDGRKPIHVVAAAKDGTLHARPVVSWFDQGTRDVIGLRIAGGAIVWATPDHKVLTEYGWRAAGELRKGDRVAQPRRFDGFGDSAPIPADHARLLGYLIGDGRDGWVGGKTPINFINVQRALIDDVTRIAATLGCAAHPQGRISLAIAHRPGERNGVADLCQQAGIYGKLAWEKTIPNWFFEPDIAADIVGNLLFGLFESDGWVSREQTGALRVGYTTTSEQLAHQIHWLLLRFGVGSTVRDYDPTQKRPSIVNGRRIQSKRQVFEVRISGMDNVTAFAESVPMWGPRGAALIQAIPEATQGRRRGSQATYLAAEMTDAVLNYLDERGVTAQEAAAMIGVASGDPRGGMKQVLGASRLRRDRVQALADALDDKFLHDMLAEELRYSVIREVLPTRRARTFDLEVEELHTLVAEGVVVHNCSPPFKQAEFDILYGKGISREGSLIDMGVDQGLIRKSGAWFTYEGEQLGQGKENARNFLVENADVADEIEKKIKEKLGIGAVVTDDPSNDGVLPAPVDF
# Experiment: Fluorescence Cell-Free Homogeneous Dose Retest to Identify Inhibitors of RecA-Intein Splicing Activity. [Related pubchem assays (depositor defined):AID2097, AID2223, AID489010, AID492950]
# Assay type: functional
# Settings: not given
row,SMILES,EC50
1,COC(=O)c1c(NC(=O)/C=C/C(=O)O)sc(C)c1-c1ccc(C)c(C)c1,5.69 µM (active)
